Reference: patent publication US10517889B2, “Modulators of SMAD7 expression” (Ionis Pharmaceuticals, Inc., priority 2017, dated 2019)
Strand notation (5' to 3'): a small letter for the sugar, then the base; units joined by * are phosphorothioate-linked, units joined directly phosphodiester-linked; [ ] holds rarer units or linkages, { } end groups; capitals alone tell only the bases. k = constrained ethyl (cEt); [5mC] = 5-methylcytosine; d = 2'-deoxy (DNA)

Tests used:
[1] = tested on: human SMAD7 mRNA; assay: Dose-dependent inhibition of human SMAD7 mRNA expression in Hep3B cells (Example 3, Study 1 and 2); type: cell-based; details: electroporation; for % inhibition of SMAD7 mRNA expression: approximately 16 hours; for IC50: Study 2 (740-20000 nM)
In short: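 Hep3B cells, 20,000 per well, electroporated with antisense oligonucleotide at 0.31, 1.25, 5.00 or 20.00 μM (first series) or 0.74, 2.22, 6.67 or 20.00 μM (second series). After ~16 h, SMAD7 mRNA measured by RT-qPCR (RTS5062), normalised to RIBOGREEN total RNA. Percent inhibition vs untreated cells; IC50 derived.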

[2] = tested on: human SMAD7 mRNA; assay: Antisense inhibition of human SMAD7 mRNA expression in Hep3B cells by 3-10-3 cEt gapmers, 10,000 nM, electroporation (Example 2); type: cell-based; details: approximately 24 hours; for % inhibition of SMAD7 mRNA expression: electroporation, 10,000 nM antisense oligonucleotide, RTS5062, relative to untreated control cells
In short: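 Hep3B cells (20,000/well) were electroporated with 10,000 nM 3-10-3 cEt gapmer (16-mer, phosphorothioate, 5-methylcytosines) and harvested after about 24 h. SMAD7 mRNA quantified by RT-qPCR with primer probe set RTS5062, normalized to total RNA by RiboGreen; percent inhibition relative to untreated cells.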

[3] = 740 nM, Study 2, relative to untreated control cells
[4] = Hep3B cells, electroporation with 10,000 nM antisense oligonucleotide, RTS5062, percent inhibition of SMAD7 mRNA relative to untreated control cells
[5] = Hep3B cells, 10,000 nM antisense oligonucleotide, electroporation, RT-PCR primer probe set RTS5062, relative to untreated control cells

| Substance | % inhibition of SMAD7 mRNA expression [1, 3] | % inhibition of SMAD7 mRNA expression ([1]; 2220 nM, Study 2) | % inhibition of SMAD7 mRNA expression ([1]; 6670.0 nM, Study 2) | % inhibition of SMAD7 mRNA expression ([1]; 20000.0 nM, Study 2) | IC50 [1] | % Inhibition [2, 4] | % inhibition of SMAD7 mRNA expression ([2]; Hep3B cells) | % Inhibition [2, 5] |
| --- | --- | --- | --- | --- | --- | --- | --- | --- |
| 799669 (antisense kT*kA*kT*dG*dA*d[5mC]*dA*dG*dA*dT*dG*d[5mC]*d[5mC]*kA*kG*k[5mC]) [compound 799669] | 47% | 72% | 82% | 95% | 3 µM | 81% |  |  |
| 799671 (antisense kA*kG*kG*dT*dA*dT*dT*dT*dT*dT*dG*dA*dA*kG*kG*k[5mC]) [compound 799671] | 22% | 56% | 71% | 74% | 2 µM | 59% |  |  |
| 799673 (antisense k[5mC]*kT*kG*dA*dT*dT*dA*dA*d[5mC]*dT*dT*dT*d[5mC]*k[5mC]*kT*kT) [compound 799673] | 29% | 66% | 74% | 86% | 4 µM |  | 64% |  |
| 799674 (antisense kG*kA*kT*d[5mC]*dA*d[5mC]*dA*dA*dT*dT*d[5mC]*d[5mC]*dA*kA*kG*k[5mC]) [compound 799674] | 16% | 35% | 64% | 91% | 14 µM |  | 48% |  |
| 799686 (antisense kG*kA*kG*dA*dT*dT*dT*dT*dA*dA*dA*dT*dG*k[5mC]*kT*kG) [compound 799686] | 18% | 35% | 36% | 56% | 2 µM | 62% |  |  |
| 799689 (antisense kT*kG*k[5mC]*dT*dA*d[5mC]*dA*dG*dT*dG*dT*d[5mC]*dA*k[5mC]*k[5mC]*kA) [compound 799689] | 34% | 49% | 65% | 73% | 5 µM | 63% |  |  |
| 799708 (antisense k[5mC]*kA*kA*dA*d[5mC]*dT*dT*dG*dT*dG*dG*dT*dA*kA*kA*kA) [compound 799708] | 15% | 35% | 52% | 79% | 11 µM | 60% |  |  |
| 799709 (antisense kT*k[5mC]*kA*dA*dA*d[5mC]*dT*dT*dG*dT*dG*dG*dT*kA*kA*kA) [compound 799709] | 0% | 27% | 36% | 62% | 7 µM | 60% |  |  |
| 799711 (antisense kG*kG*kT*d[5mC]*dA*dA*dA*d[5mC]*dT*dT*dG*dT*dG*kG*kT*kA) [compound 799711] | 36% | 47% | 51% | 54% | 5 µM | 60% |  |  |
| 799712 (antisense kA*kT*kA*dG*dA*dT*dT*dA*dT*d[5mC]*d[5mC]*dA*dA*kG*kT*kA) [compound 799712] | 27% | 45% | 55% | 63% | 3 µM |  | 70% |  |
| 799718 (antisense k[5mC]*kT*kG*d[5mC]*dT*dA*dG*dG*dG*dA*dT*dA*d[5mC]*kT*kG*kA) [compound 799718] | 23% | 52% | 66% | 72% | 4 µM |  | 65% |  |
| 799722 (antisense kG*k[5mC]*kA*dG*dA*dG*dT*dG*dA*dG*dA*dA*d[5mC]*kA*kA*kG) [compound 799722] | 17% | 38% | 53% | 82% | 5 µM | 67% |  |  |
| 799734 (antisense kT*k[5mC]*k[5mC]*d[5mC]*dA*dG*dG*dT*dG*dA*dA*d[5mC]*d[5mC]*k[5mC]*kA*k[5mC]) [compound 799734] | 8% | 44% | 64% | 67% | 8 µM |  | 45% |  |
| 799743 (antisense k[5mC]*kT*kG*dG*dA*dG*dT*dT*dA*dT*dT*d[5mC]*dT*k[5mC]*kA*kA) [compound 799743] | 0% | 43% | 44% | 64% | 5 µM | 51% |  |  |
| 799751 (antisense kG*kA*kG*d[5mC]*dT*dA*dA*dT*dG*dA*d[5mC]*dA*d[5mC]*kT*kG*kG) [compound 799751] | 11% | 35% | 69% | 65% | 10 µM |  | 60% |  |
| 799753 (antisense k[5mC]*kG*kT*dG*dA*dG*dT*dA*dA*dA*dT*dT*d[5mC]*kT*kT*kA) [compound 799753] | 0% | 33% | 32% | 66% | 4 µM |  | 69% |  |
| 799755 (antisense kG*kA*kA*dA*dG*dT*dT*dA*d[5mC]*dA*dG*dA*dA*k[5mC]*kT*k[5mC]) [compound 799755] | 13% | 44% | 66% | 75% | 6 µM |  | 77% |  |
| 799759 (antisense kA*k[5mC]*k[5mC]*dA*dT*dA*dT*d[5mC]*dA*d[5mC]*dT*d[5mC]*d[5mC]*kT*kT*k[5mC]) [compound 799759] | 22% | 44% | 45% | 66% | 2 µM |  | 66% |  |
| 799781 (kG*kT*k[5mC]*dA*dA*dT*dA*d[5mC]*dA*dT*dA*dT*dT*kT*kG*k[5mC]; antisense) [compound 799781] | 23% | 75% | 72% | 92% | > 20 µM | 66% |  |  |
| 799787 (k[5mC]*k[5mC]*kA*dA*dA*dG*d[5mC]*dA*dG*dA*dA*dG*dT*kA*kG*kA; antisense) [compound 799787] | 0% | 9% | 35% | 41% | 18 µM | 58% |  |  |
| 799791 (kG*kG*kG*dA*dG*dA*d[5mC]*d[5mC]*dT*dA*d[5mC]*d[5mC]*dT*k[5mC]*kT*kG; antisense) [compound 799791] | 11% | 4% | 29% | 60% | 6 µM |  | 56% |  |
| 799808 (antisense kG*k[5mC]*kT*dG*dA*dA*dA*dG*dA*dA*dA*dG*dT*k[5mC]*k[5mC]*k[5mC]) [compound 799808] | 8% | 33% | 52% | 73% | 10 µM | 70% |  |  |
| 799851 (kA*kA*kG*dT*dG*dT*d[5mC]*d[5mC]*dA*dT*d[5mC]*dA*dA*kG*k[5mC]*kA; antisense) [compound 799851] | 15% | 36% | 46% | 57% | 2 µM |  |  | 70% |
| 799854 (kG*k[5mC]*k[5mC]*dA*dA*dG*dT*dG*dT*d[5mC]*d[5mC]*dA*dT*k[5mC]*kA*kA; antisense) [compound 799854] | 21% | 56% | 80% | 79% | 5 µM |  |  | 45% |
